Columns and labels:
FPPS [1] = target: T1, FPPS (Homo sapiens, UniProt P14324)
Target sequence in this assay (P14324 72-419): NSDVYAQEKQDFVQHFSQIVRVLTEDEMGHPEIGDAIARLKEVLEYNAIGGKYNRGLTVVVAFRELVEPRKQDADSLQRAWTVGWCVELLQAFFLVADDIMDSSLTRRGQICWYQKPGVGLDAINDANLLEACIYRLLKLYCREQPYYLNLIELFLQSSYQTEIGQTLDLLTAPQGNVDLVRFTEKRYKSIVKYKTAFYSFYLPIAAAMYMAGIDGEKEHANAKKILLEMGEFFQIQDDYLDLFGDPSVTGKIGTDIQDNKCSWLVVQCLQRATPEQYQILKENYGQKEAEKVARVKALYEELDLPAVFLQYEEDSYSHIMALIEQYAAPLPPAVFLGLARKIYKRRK

FPPS [2] = target: T1, FPPS; conditions: with respect to allylic substrates and IPP; cited from earlier work
Target sequence in this assay (P14324 whole entry): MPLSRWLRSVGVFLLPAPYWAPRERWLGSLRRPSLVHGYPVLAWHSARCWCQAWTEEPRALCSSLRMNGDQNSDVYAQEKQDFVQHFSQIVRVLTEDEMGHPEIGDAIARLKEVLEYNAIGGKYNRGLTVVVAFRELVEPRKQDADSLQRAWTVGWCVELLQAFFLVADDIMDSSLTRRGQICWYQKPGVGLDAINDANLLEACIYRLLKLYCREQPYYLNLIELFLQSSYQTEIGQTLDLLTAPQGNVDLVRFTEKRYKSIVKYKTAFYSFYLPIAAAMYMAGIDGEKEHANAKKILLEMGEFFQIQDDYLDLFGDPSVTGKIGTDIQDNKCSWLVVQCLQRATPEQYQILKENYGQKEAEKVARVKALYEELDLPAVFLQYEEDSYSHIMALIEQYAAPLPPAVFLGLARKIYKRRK

Structure (SMILES): C=C(C)CCOP(=O)(O)OP(=O)(O)O [IPP, isopentenyl diphosphate]
- binding in the presence of zoledronate/Mg2+ (NMR) (FPPS [1]; IPP 400 μM added to FPPS/zoledronate/Mg2+ sample): binds to FPPS even in the presence of zoledronate

Structure (SMILES): NCCC(O)(P(=O)(O)O)P(=O)(O)O [pamidronate]
- chemical shift changes in 15N,1H-TROSY spectrum upon ligand addition (FPPS [1]; FPPS dimer 60 μM, pamidronate 270 μM, Mg2+ 900 μM): almost all of the non-overlapping resonances experience chemical shift changes

Structure (SMILES): NCCCC(O)(P(=O)(O)O)P(=O)(O)O [alendronate]
- mode of FPPS inhibition (FPPS [2]): competitive with respect to allylic substrates but not IPP

Source: US20080139449A1 (priority 2005, published 2008)
